The record followed here is US20250308625A1, “METHOD FOR ESTIMATING A DYNAMIC MOLECULAR PROGRAM OF A CELL” (Yale University, priority 2022, published 2025).

The structures appear in SMILES notation.

This assay has as its target T1, ESRRA (Homo sapiens, UniProt P11474).
T1 construct: endogenous in cells; host or cells: HCC38 CD44hi cells (2D culture)
T1 sequence (P11474 1-423): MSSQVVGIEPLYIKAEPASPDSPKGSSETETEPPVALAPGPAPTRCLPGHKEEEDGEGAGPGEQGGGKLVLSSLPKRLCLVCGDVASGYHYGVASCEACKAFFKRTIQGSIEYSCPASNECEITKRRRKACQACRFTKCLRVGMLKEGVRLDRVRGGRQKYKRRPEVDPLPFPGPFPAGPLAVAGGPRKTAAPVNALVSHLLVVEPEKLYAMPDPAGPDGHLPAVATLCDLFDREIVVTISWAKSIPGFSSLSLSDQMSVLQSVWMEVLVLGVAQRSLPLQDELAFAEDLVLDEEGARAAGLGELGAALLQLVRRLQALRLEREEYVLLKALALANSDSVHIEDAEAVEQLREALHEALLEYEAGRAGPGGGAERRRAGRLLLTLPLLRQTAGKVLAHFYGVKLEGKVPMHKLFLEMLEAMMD
Briefly: Western blot of CDH1 expression after ESRRA knockdown (siRNA) or ESRRA inhibition (C14) in 2D cultured HCC38 CD44hi cells. It is filed as cell-based. Particulars: 2D culture, C14 at 5 and 10 μM vs DMSO, 48 hours post-treatment, normalized to β-Actin, n=3, p≤0.05. How it is done: Preliminary validation of the MET network included an in-vitro knockdown of ESRRA in HCC38 CD44^hi cells (n=3 biological replicates). Predesigned siRNA specific to ESRRA and scrambled siRNA were purchased from Integrated DNA Technologies, USA (TriFECTa® RNAi Kit, Design ID hs.Ri.ESRRA.13). HCC38 CD44^hi cells were seeded in 24 well plates at a density of 9000 cells/well and ESRRA knockdown was performed using 10 nM of pooled siRNA (hs.Ri.ESRRA.13.1, hs.Ri.ESRRA.13.2 and hs.Ri.ESRRA.13.3) using Lipofectamine RNAiMax (ThermoFisher Scientific, USA) as per the manufacturer's protocol. Cells were harvested for protein extraction 48 hrs post siRNA transfection to study the downstream effect on CDH1 expression upon ESRRA knockdown using western blot. […]
Proteins were extracted from control and treated cells using ice cold modified RIPA buffer (50 mM Tris-HCl pH 7.5, 150 mM NaCl, 1 mM EDTA, 1 mM EGTA, 1% Triton X-100, 0.1% SDS with supplemented with 1× protease and phosphatase inhibitor cocktails). […] Proteins were quantified using the Pierce™ BCA Protein Assay Kit (Cat. 23227, Thermo Fisher Scientific, USA) as per the manufacturer's instructions. […] The signal intensity of the bands in western blots was quantified using Image Studio Lite version 5.2 (LI-COR Biotechnology, USA).

For the compound `CC(C)c1cccc(-n2cc(C(=O)c3ccccc3N)nn2)c1` [ESRRA antagonist, (2-Aminophenyl) (1-(3-isopropylphenyl)-1H-1,2,3-triazol-4-yl) methanone], the “CDH1 expression (western blot, relative fold-change)” value is recorded as “significant increase”.
